Measurements: PubChem BioAssay (NCI)
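Where inhibition never reached the appropriate level, the endpoint shown equals the highest concentration tested. Otherwise, values were interpolated linearly from a five-concentration, 48-hour dose response in 96-well plates. Definition used: TGI = concentration required for complete inhibition of growth.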

Experiments:
Experiment in all cases: inhibition of tumour cell growth, NCI panel, 48 h
SK-MEL-28 melanoma = test system: SK-MEL-28 melanoma
NCI-H226 lung = test system: NCI-H226 lung
SF-295 CNS = test system: SF-295 CNS
ACHN renal = test system: ACHN renal
CAKI-1 renal = test system: CAKI-1 renal
SF-268 CNS = test system: SF-268 CNS
DLD-1 colon = test system: DLD-1 colon
OVCAR-5 ovarian = test system: OVCAR-5 ovarian
SK-MEL-5 melanoma = test system: SK-MEL-5 melanoma
SN12C renal = test system: SN12C renal
KM20L2 colon = test system: KM20L2 colon
OVCAR-4 ovarian = test system: OVCAR-4 ovarian
M14 melanoma = test system: M14 melanoma
HOP-18 NSCLC = test system: HOP-18 NSCLC
RXF 393 renal = test system: RXF 393 renal
SK-MEL-2 melanoma = test system: SK-MEL-2 melanoma
HT29 colon = test system: HT29 colon
LXFL 529 NSCLC = test system: LXFL 529 NSCLC
A549 NSCLC = test system: A549 NSCLC
UACC-62 melanoma = test system: UACC-62 melanoma
SK-OV-3 ovarian = test system: SK-OV-3 ovarian
SNB-75 CNS = test system: SNB-75 CNS
TK-10 renal = test system: TK-10 renal
MALME-3M melanoma = test system: MALME-3M melanoma
SF-539 CNS = test system: SF-539 CNS
HCT-15 colon = test system: HCT-15 colon
A498 renal = test system: A498 renal
KM12 colon = test system: KM12 colon
K-562 leukemia = test system: K-562 leukemia
NCI-H522 lung = test system: NCI-H522 lung
LOX IMVI melanoma = test system: LOX IMVI melanoma
HOP-92 NSCLC = test system: HOP-92 NSCLC
UACC-257 melanoma = test system: UACC-257 melanoma
SNB-78 CNS = test system: SNB-78 CNS
EKVX NSCLC = test system: EKVX NSCLC
NCI-H460 lung = test system: NCI-H460 lung
COLO 205 colon = test system: COLO 205 colon
SW-620 colon = test system: SW-620 colon
786-0 renal = test system: 786-0 renal
UO-31 renal = test system: UO-31 renal
M19-MEL melanoma = test system: M19-MEL melanoma
DMS 114 small cell lung = test system: DMS 114 small cell lung
NCI-H23 lung = test system: NCI-H23 lung
HCC-2998 colon = test system: HCC-2998 colon
OVCAR-3 ovarian = test system: OVCAR-3 ovarian
HCT-116 colon = test system: HCT-116 colon
IGROV1 ovarian = test system: IGROV1 ovarian
SNB-19 CNS = test system: SNB-19 CNS
HL-60(TB) leukemia = test system: HL-60(TB) leukemia
CCRF-CEM leukemia = test system: CCRF-CEM leukemia
OVCAR-8 ovarian = test system: OVCAR-8 ovarian
RXF-631 renal = test system: RXF-631 renal
HOP-62 NSCLC = test system: HOP-62 NSCLC
DMS 273 small cell lung = test system: DMS 273 small cell lung
U251 CNS = test system: U251 CNS
MOLT-4 leukemia = test system: MOLT-4 leukemia
RPMI-8226 leukemia = test system: RPMI-8226 leukemia
SR leukemia = test system: SR leukemia
XF 498 CNS = test system: XF 498 CNS

Measured: TGI

O=C(Cc1nc(-c2ccccc2)cc(=O)n1-c1ccccc1Cl)c1ccncc1
82.6 µM: SNB-75 CNS
not listed: MOLT-4 leukemia | RPMI-8226 leukemia | SR leukemia | XF 498 CNS
> 100 µM: all other assays above

c1ccc(-c2[o+]c(-c3ccccc3)c(-c3ccccc3)c(-c3ccccc3)c2-c2ccccc2)cc1
not listed: KM12 colon | K-562 leukemia | DMS 114 small cell lung | SNB-19 CNS | CCRF-CEM leukemia | SR leukemia | XF 498 CNS
> 100 µM: all other assays above

CC(C)C(N=c1c2ccccc2n(O)c2ccccc12)C(=O)O (stereo unspecified)
not listed: RXF 393 renal | SF-539 CNS | HOP-92 NSCLC | MOLT-4 leukemia | SR leukemia | XF 498 CNS
> 100 µM: all other assays above

COC12OCCN(CCO)C1=CC(=O)C1(C)N=NC(C)C12 (stereo unspecified)
not listed: SF-268 CNS | OVCAR-5 ovarian | KM20L2 colon | OVCAR-4 ovarian | SK-MEL-2 melanoma | SNB-19 CNS | HL-60(TB) leukemia | HOP-62 NSCLC | SR leukemia | XF 498 CNS
> 100 µM: all other assays above

O=C(CC1C(=O)Nc2ccccc2S1(=O)=O)Nc1cc(Cl)ccc1Cl (stereo unspecified)
32.6 µM: KM20L2 colon
30 µM: EKVX NSCLC
27.1 µM: LXFL 529 NSCLC
34.4 µM: SF-295 CNS
30.2 µM: SN12C renal
23.2 µM: MOLT-4 leukemia
33.1 µM: A549 NSCLC
39.9 µM: TK-10 renal
18.1 µM: LOX IMVI melanoma
27 µM: DMS 114 small cell lung
40.6 µM: MALME-3M melanoma
32.7 µM: RXF 393 renal
71.1 µM: OVCAR-5 ovarian
32.8 µM: OVCAR-4 ovarian
40.2 µM: SW-620 colon
27.5 µM: HCT-15 colon
22.6 µM: U251 CNS
88.9 µM: RXF-631 renal
41 µM: SK-MEL-28 melanoma
40.4 µM: NCI-H23 lung
20.7 µM: 786-0 renal
26.9 µM: IGROV1 ovarian
35.4 µM: SK-MEL-2 melanoma
32 µM: CAKI-1 renal
35.8 µM: NCI-H226 lung
41.9 µM: OVCAR-8 ovarian
35.3 µM: HL-60(TB) leukemia
62.5 µM: CCRF-CEM leukemia
35.7 µM: ACHN renal
30.3 µM: SK-MEL-5 melanoma | NCI-H460 lung
42 µM: K-562 leukemia
29.8 µM: SNB-19 CNS
30.4 µM: HOP-92 NSCLC
33.7 µM: UACC-62 melanoma
28 µM: HCT-116 colon
24.4 µM: SF-268 CNS
33.4 µM: DLD-1 colon
24.3 µM: SR leukemia
34.3 µM: HT29 colon
29 µM: OVCAR-3 ovarian
31.4 µM: A498 renal
33.6 µM: SNB-78 CNS
7.23 µM: SF-539 CNS
36.2 µM: HCC-2998 colon
30.6 µM: M14 melanoma
27.6 µM: XF 498 CNS
13.4 µM: RPMI-8226 leukemia
34.1 µM: M19-MEL melanoma
31 µM: SNB-75 CNS | UO-31 renal
> 100 µM: UACC-257 melanoma
